Experiments:
Assay in all cases: relative viability (nuclei count vs DMSO), 5 days (fraction); higher = more cells survive
CAL-12T = system: CAL-12T
Summary of the method: (§1)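 Medians of duplicate plates are given as relative viability. That measure is the nuclei count in treated wells divided by the count in vehicle wells. Counts were taken on 4× images of lung cancer cell lines in 1536-well plates, 5 days after pin-tool dosing the day after seeding with one drug alone or a fixed anchor-drug dose plus five library-drug doses (not always all listed) in √10 steps.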

NCI-H322M = system: NCI-H322M
Summary of the method: as §1

SW 900 = system: SW 900
Summary of the method: as §1

NCI-H727 = system: NCI-H727
Summary of the method: as §1

HCC-15 = system: HCC-15
Summary of the method: as §1

NCI-H358 = system: NCI-H358
Summary of the method: as §1

LK-2 = system: LK-2
Summary of the method: as §1

EKVX = system: EKVX
Summary of the method: as §1

ABC-1 = system: ABC-1
Summary of the method: as §1

NCI-H522 = system: NCI-H522
Summary of the method: as §1

NCI-H520 = system: NCI-H520
Summary of the method: as §1

NCI-H1651 = system: NCI-H1651
Summary of the method: as §1

COR-L 105 = system: COR-L 105
Summary of the method: as §1

BEN = system: BEN
Summary of the method: as §1

NCI-H460 = system: NCI-H460
Summary of the method: as §1

201T = system: 201T
Summary of the method: as §1

LU99A = system: LU99A
Summary of the method: as §1

HCC-44 = system: HCC-44
Summary of the method: as §1

PC-3 [JPC-3] = system: PC-3 [JPC-3]
Summary of the method: as §1

NCI-H838 = system: NCI-H838
Summary of the method: as §1

EMC-BAC-2 = system: EMC-BAC-2
Summary of the method: as §1

NCI-H2023 = system: NCI-H2023
Summary of the method: as §1

Structure (SMILES): Cc1csc(=NC2CCCCC2)n1/N=C/c1ccc(O)c(O)c1O [MIM1] + O=C(CCCCCCC(=O)Nc1ccccc1)NO [Vorinostat] (partner 1 µM)
- relative viability (CAL-12T; first compound 0.2 µM): 0.765
- relative viability (CAL-12T; first compound 0.6325 µM): 0.752
- relative viability (CAL-12T; first compound 2 µM): 0.801
- relative viability (CAL-12T; first compound 6.325 µM): 0.588
- relative viability (CAL-12T; first compound 20 µM): 0.595
- relative viability (NCI-H322M; first compound 0.2 µM): 0.889
- relative viability (NCI-H322M; first compound 0.6325 µM): 0.917
- relative viability (NCI-H322M; first compound 2 µM): 0.789
- relative viability (NCI-H322M; first compound 6.325 µM): 0.733
- relative viability (NCI-H322M; first compound 20 µM): 0.418
- relative viability (SW 900; first compound 0.2 µM): 0.45
- relative viability (SW 900; first compound 0.6325 µM): 0.632
- relative viability (SW 900; first compound 2 µM): 0.549
- relative viability (SW 900; first compound 6.325 µM): 0.175
- relative viability (SW 900; first compound 20 µM): 0.187
- relative viability (NCI-H727; first compound 0.2 µM): 1.29
- relative viability (NCI-H727; first compound 0.6325 µM): 1.16
- relative viability (NCI-H727; first compound 2 µM): 1.15
- relative viability (NCI-H727; first compound 6.325 µM): 1.06
- relative viability (NCI-H727; first compound 20 µM): 0.607
- relative viability (HCC-15; first compound 0.2 µM): 0.789
- relative viability (HCC-15; first compound 0.6325 µM): 0.81
- relative viability (HCC-15; first compound 2 µM): 0.87
- relative viability (HCC-15; first compound 6.325 µM): 0.49
- relative viability (HCC-15; first compound 20 µM): 0.167
- relative viability (NCI-H358; first compound 0.2 µM): 0.741
- relative viability (NCI-H358; first compound 0.6325 µM): 0.628
- relative viability (NCI-H358; first compound 2 µM): 0.678
- relative viability (NCI-H358; first compound 6.325 µM): 0.235
- relative viability (NCI-H358; first compound 20 µM): 0.169
- relative viability (LK-2; first compound 0.2 µM): 0.363
- relative viability (LK-2; first compound 0.6325 µM): 0.272
- relative viability (LK-2; first compound 2 µM): 0.304
- relative viability (LK-2; first compound 6.325 µM): 0.562
- relative viability (LK-2; first compound 20 µM): 0.203
- relative viability (EKVX; first compound 0.2 µM): 0.609
- relative viability (EKVX; first compound 2 µM): 0.707
- relative viability (EKVX; first compound 6.325 µM): 0.473
- relative viability (EKVX; first compound 20 µM): 0.265
- relative viability (ABC-1; first compound 0.2 µM): 1.42
- relative viability (ABC-1; first compound 0.6325 µM): 0.87
- relative viability (ABC-1; first compound 2 µM): 0.994
- relative viability (ABC-1; first compound 6.325 µM): 0.497
- relative viability (ABC-1; first compound 20 µM): 0.247
- relative viability (NCI-H522; first compound 0.2 µM): 0.858
- relative viability (NCI-H522; first compound 0.6325 µM): 0.916
- relative viability (NCI-H522; first compound 2 µM): 0.91
- relative viability (NCI-H522; first compound 6.325 µM): 0.891
- relative viability (NCI-H522; first compound 20 µM): 0.345
- relative viability (NCI-H520; first compound 0.2 µM): 0.64
- relative viability (NCI-H520; first compound 0.6325 µM): 0.744
- relative viability (NCI-H520; first compound 2 µM): 0.833
- relative viability (NCI-H520; first compound 6.325 µM): 0.538
- relative viability (NCI-H520; first compound 20 µM): 0.308
- relative viability (NCI-H1651; first compound 0.2 µM): 0.509
- relative viability (NCI-H1651; first compound 0.6325 µM): 0.408
- relative viability (NCI-H1651; first compound 2 µM): 0.519
- relative viability (NCI-H1651; first compound 6.325 µM): 0.395
- relative viability (NCI-H1651; first compound 20 µM): 0.51
- relative viability (COR-L 105; first compound 0.2 µM): 0.809
- relative viability (COR-L 105; first compound 0.6325 µM): 0.821
- relative viability (COR-L 105; first compound 2 µM): 0.774
- relative viability (COR-L 105; first compound 6.325 µM): 0.731
- relative viability (COR-L 105; first compound 20 µM): 0.616
- relative viability (BEN; first compound 0.2 µM): 0.587
- relative viability (BEN; first compound 0.6325 µM): 0.546
- relative viability (BEN; first compound 2 µM): 0.562
- relative viability (BEN; first compound 6.325 µM): 0.511
- relative viability (BEN; first compound 20 µM): 0.394
- relative viability (NCI-H460; first compound 0.2 µM): 0.703
- relative viability (NCI-H460; first compound 0.6325 µM): 0.746
- relative viability (NCI-H460; first compound 2 µM): 0.411
- relative viability (NCI-H460; first compound 6.325 µM): 0.117
- relative viability (NCI-H460; first compound 20 µM): 0.0234
- relative viability (201T; first compound 0.2 µM): 0.974
- relative viability (201T; first compound 0.6325 µM): 0.952
- relative viability (201T; first compound 2 µM): 0.935
- relative viability (201T; first compound 6.325 µM): 0.528
- relative viability (201T; first compound 20 µM): 0.3
- relative viability (LU99A; first compound 0.2 µM): 0.515
- relative viability (LU99A; first compound 0.6325 µM): 0.435
- relative viability (LU99A; first compound 2 µM): 0.463
- relative viability (LU99A; first compound 6.325 µM): 0.387
- relative viability (LU99A; first compound 20 µM): 0.119
- relative viability (HCC-44; first compound 0.2 µM): 1.1
- relative viability (HCC-44; first compound 0.6325 µM): 1.1
- relative viability (HCC-44; first compound 2 µM): 1.01
- relative viability (HCC-44; first compound 6.325 µM): 1.08
- relative viability (HCC-44; first compound 20 µM): 0.324
- relative viability (PC-3 [JPC-3]; first compound 0.2 µM): 0.776
- relative viability (PC-3 [JPC-3]; first compound 0.6325 µM): 0.714
- relative viability (PC-3 [JPC-3]; first compound 2 µM): 0.726
- relative viability (PC-3 [JPC-3]; first compound 6.325 µM): 0.657
- relative viability (PC-3 [JPC-3]; first compound 20 µM): 0.376
- relative viability (NCI-H838; first compound 0.2 µM): 0.717
- relative viability (NCI-H838; first compound 0.6325 µM): 0.747
- relative viability (NCI-H838; first compound 2 µM): 0.675
- relative viability (NCI-H838; first compound 6.325 µM): 0.413
- relative viability (NCI-H838; first compound 20 µM): 0.197
- relative viability (EMC-BAC-2; first compound 0.2 µM): 0.492
- relative viability (EMC-BAC-2; first compound 0.6325 µM): 0.302
- relative viability (EMC-BAC-2; first compound 2 µM): 0.404
- relative viability (EMC-BAC-2; first compound 6.325 µM): 0.313
- relative viability (EMC-BAC-2; first compound 20 µM): 0.157
- relative viability (NCI-H2023; first compound 0.2 µM): 0.55
- relative viability (NCI-H2023; first compound 0.6325 µM): 0.58
- relative viability (NCI-H2023; first compound 2 µM): 0.391
- relative viability (NCI-H2023; first compound 6.325 µM): 0.194
- relative viability (NCI-H2023; first compound 20 µM): 0.0736

Source: the supplement of paper PMC10307832
